Data from ChEMBL document CHEMBL1201862, “PubChem BioAssay data set” (2004).
Active and inactive are the calls of the source.

How the values were obtained:
[1] = inhibitors of PGC1a acetylation in cells, dose response, cell-based, cherry-picked samples (AID 720514); assay type: functional;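 further: potency may reflect raised or lowered acetylation signal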
Vasopressin V1b receptor = Vasopressin V1b receptor (Homo sapiens, UniProt P47901); experiment: Late-stage results from the probe development effort to identify antagonists of arginine vasopressin receptor 1a (AVPR1a): fluorescence-based cell-based dose response AVPR1b inhibition counterscreen assay.; assay type: functional
Vasopressin V2 receptor = Vasopressin V2 receptor (Homo sapiens, UniProt P30518); experiment: Late-stage results from the probe development effort to identify antagonists of arginine vasopressin receptor 1a (AVPR1a): fluorescence-based cell-based dose response AVPR2 inhibition counterscreen assay.; assay type: functional
[2] = Late-stage results from the probe development effort to identify antagonists of arginine vasopressin receptor 1a (AVPR1a): fluorescence-based cell-based dose response OXTR inhibition counterscreen assay.; assay type: functional
[3] = Late-stage results from the probe development effort to identify antagonists of arginine vasopressin receptor 1a (AVPR1a): fluorescence-based cell-based dose response AVPR1a inhibition assay.; assay type: functional
[4] = A549 cell cytotoxicity, dose response, cytotoxicity control, 24 h, CellTiter-Glo luminescence, cherry-picks (AID 1053115); assay type: functional, cell-based; conditions: A549, 24 h
[5] = target: RNA-editing ligase 1, mitochondrial (Trypanosoma brucei brucei, UniProt P86926); experiment: TbREL1 ligase inhibitors, dose response, biochemical, fluorescence, Trypanosoma brucei (AID 1117295); assay type: functional
[6] = Plasmodium falciparum Dd2 Sybr green parasite growth Measured in Cell-Based and Microorganism Combination System Using Plate Reader - 2153-01_Inhibitor_Dose_DryPowder_Activity_Set3.; assay type: functional
[7] = P. falciparum 3D7-ScDHODH growth inhibitors, dose response, SYBR Green, dry powder samples (AID 1159570); assay type: functional, cell-based;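 further: parasite growth measured after 72 hours of compound exposure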
[8] = HepG2 cell cytotoxicity, dose response, cytotoxicity control, plate reader, dry powder samples (AID 1159569); assay type: functional, cell-based;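 further: inhibitor potency with signal falling toward the positive control level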
[9] = P. falciparum Dd2 growth inhibitors, dose response, SYBR Green, dry powder samples (AID 1159566); assay type: functional, cell-based;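 further: potency for growth inhibition with lower SYBR green DNA signal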
[10] = P. falciparum Dd2 growth inhibitors, dose response, SYBR Green, cherry-picked samples (AID 1159567); assay type: functional, cell-based
[11] = P. falciparum ATP4 D1247Y mutant growth inhibitors, dose response, NITD609-resistant line, SYBR Green, dry powder (AID 1159571); assay type: functional, cell-based;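 further: parasites synchronized at ring stage by sorbitol before testing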

Chain of Vasopressin V1b receptor (P47901 whole entry): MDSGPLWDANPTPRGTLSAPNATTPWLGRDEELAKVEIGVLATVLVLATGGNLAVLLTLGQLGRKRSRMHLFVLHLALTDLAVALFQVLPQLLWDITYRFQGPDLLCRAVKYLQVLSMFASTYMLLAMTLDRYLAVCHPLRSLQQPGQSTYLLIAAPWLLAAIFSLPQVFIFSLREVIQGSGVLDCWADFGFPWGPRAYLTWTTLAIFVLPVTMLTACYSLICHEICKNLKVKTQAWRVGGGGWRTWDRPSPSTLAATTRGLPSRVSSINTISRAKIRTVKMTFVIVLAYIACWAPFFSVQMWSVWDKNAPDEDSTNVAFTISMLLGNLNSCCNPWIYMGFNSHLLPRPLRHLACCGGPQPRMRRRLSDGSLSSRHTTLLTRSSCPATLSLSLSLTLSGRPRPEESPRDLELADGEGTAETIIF
Chain of Vasopressin V2 receptor (P30518 whole entry): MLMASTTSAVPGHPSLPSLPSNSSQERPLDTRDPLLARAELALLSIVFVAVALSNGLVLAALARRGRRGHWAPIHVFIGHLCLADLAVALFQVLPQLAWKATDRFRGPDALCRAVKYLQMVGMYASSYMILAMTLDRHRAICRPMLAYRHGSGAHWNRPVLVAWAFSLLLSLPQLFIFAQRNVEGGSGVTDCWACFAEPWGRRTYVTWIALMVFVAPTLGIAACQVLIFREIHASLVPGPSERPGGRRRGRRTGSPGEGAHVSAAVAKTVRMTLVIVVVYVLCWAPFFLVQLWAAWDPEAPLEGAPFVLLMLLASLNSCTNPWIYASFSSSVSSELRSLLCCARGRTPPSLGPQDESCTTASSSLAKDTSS
Chain of RNA-editing ligase 1, mitochondrial (P86926 whole entry): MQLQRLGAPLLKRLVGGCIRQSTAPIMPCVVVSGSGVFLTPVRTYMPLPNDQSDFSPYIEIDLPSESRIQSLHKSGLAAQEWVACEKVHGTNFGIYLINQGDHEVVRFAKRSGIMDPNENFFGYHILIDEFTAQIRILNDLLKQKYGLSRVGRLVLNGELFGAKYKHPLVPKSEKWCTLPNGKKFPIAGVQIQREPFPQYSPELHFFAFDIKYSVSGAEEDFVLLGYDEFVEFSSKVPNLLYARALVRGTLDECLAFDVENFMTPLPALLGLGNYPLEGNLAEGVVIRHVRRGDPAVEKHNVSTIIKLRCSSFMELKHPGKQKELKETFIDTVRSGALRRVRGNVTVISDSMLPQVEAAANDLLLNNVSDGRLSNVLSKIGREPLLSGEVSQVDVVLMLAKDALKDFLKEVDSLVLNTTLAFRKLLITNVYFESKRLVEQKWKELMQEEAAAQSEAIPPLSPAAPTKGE

In the case of `CCOc1ccc(N2C(=O)Cc3ccccc3C2=O)cc1`, the AC50 [1] is reported as 32.7 µM (active).
In the case of `O=C(C1CCN(c2ncccc2C(F)(F)F)CC1)N(CC1CC1)c1ccc(Cl)cc1`, the IC50 (Vasopressin V1b receptor) is reported as 5.93 µM (active), the IC50 (Vasopressin V2 receptor) is reported as 5.91 µM (active) and the IC50 [2] is reported as 0.8 µM (active). For the same compound, the IC50 [3] was 0.084 µM (active).
In the case of `COc1ccccc1CN1CC[C@@H]2[C@H]1c1cc(C#Cc3ccccc3)ccc1N[C@@H]2CO`, the AC50 [4] is reported as 46.8 µM (active).
With `COC(=O)C1=C(C)N(Cc2ccccc2C(F)(F)F)C(NCc2ccc(C(F)(F)F)cc2)=NC1c1cccc(F)c1` (stereo not drawn) the IC50 [5] was > 96.6 µM (inactive).
In the case of `N#C[C@@H]1[C@H](c2ccc(C3=CCCC3)cc2)[C@@H](CO)N1C(=O)NC1CCCC1`, the AC50 [6] is reported as 0.647 µM (active), the AC50 [7] is reported as 15.8 µM (active) and the AC50 [8] is reported as 82 µM (active). For the same compound, the AC50 [9] was 0.395 µM (active), the AC50 [10] was 0.615 µM (active) and the AC50 [11] was 0.694 µM (active).
